Results as given in PubChem BioAssay AID624167 (Sanford-Burnham Center for Chemical Genomics, 2012).
Active and inactive are the calls of the source.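 The calls were made as follows: active = mean IC50 for reducing PEG3 promoter reporter signal at or below a set limit, with IC50 above the limit in both counter screens; inactive = the rest, including counter screen hits.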

What was measured:
PEG-3 [1] = target: PEG-3 (UniProt Q6IN02); assay: Peg3 promoter luciferase inhibitors, potency, dose response, cell-based, HeLa, CREF/GAPDH counter-screen panel (AID 624167); settings: HeLa PEG-Prom luciferase reporter, overnight, CREF/GAPDH counter-screens, mean of runs
PEG-3 (UniProt Q6IN02), sequence (Q6IN02 whole entry, looked up): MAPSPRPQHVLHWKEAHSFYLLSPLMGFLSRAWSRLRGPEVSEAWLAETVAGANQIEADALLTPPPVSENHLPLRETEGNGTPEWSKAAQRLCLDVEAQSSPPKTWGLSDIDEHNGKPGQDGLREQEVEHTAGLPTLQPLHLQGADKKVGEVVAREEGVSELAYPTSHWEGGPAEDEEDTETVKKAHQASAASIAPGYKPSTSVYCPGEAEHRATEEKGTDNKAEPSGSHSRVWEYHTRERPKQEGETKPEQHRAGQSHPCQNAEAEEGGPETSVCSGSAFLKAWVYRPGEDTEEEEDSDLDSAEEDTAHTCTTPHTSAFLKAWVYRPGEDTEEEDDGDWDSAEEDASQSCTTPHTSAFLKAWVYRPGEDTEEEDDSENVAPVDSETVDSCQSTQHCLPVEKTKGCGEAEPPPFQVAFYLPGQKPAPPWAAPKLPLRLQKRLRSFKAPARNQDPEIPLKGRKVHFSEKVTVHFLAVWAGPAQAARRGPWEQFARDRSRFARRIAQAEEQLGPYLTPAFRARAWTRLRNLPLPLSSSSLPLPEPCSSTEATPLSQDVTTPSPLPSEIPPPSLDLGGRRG

PEG-3 [2] = assay: as above; settings: HeLa PEG-Prom luciferase reporter, overnight, CREF/GAPDH counter-screens
[3] = run 1, dose range 1, individual replicate IC50 per panel
[4] = run 2, dose range 1, individual replicate IC50 per panel

Row | Compound | IC50 (PEG-3 [1]) | IC50 (PEG-3 [2]; [3]) [µM] | IC50 (PEG-3 [2]; [4]) [µM]
1 | O=C1CCC2S/C(=C/Nc3ccc(C(F)(F)F)cc3)C(=O)N12 (centres undefined) | inactive | 6.39 | 47.7
2 | COc1cccc(NC(=O)Nc2cccc(C(=O)O)c2)c1 | inactive | 15.1 | 30
3 | Cc1ccc(Cn2c(=N)n(CC(=O)c3ccccc3)c3ccccc32)cc1 | 16.5 µM | 15.4 | 17.6
4 | CC(=O)Nc1cccc(-c2cc(NC=O)c3ncc(-c4ccc(C(C)=O)cc4)n3c2)c1 | inactive | 6 | > 100
5 | COCCn1c(C)cc(C2=NNC(=NC3CC3)SC2)c1C | 0.76 µM | 1.32 | < 0.2
6 | COc1ccccc1NC(=O)Nc1nc(C(N)CCc2ccccc2)cs1 (centres undefined) | 14.2 µM | 12.2 | 16.3
7 | CCCN1C/C(=C/c2cccc([N+](=O)[O-])c2)C(=O)/C(=C/c2cccc([N+](=O)[O-])c2)C1 | inactive | 6.69 | > 100
8 | CCCCNc1c(-c2cccc(Sc3ccc(OC)cc3)c2)nc2ccccn12 | 13.6 µM | 16.7 | 10.6
9 | COc1ccc2c(c1)[nH]c1c(=O)n(/N=C/C3C(C)C=C(C)CC3C)c(=O)[nH]c12 (centres undefined) | > 100 µM (inactive) | > 100 | > 100
10 | O=[N+]([O-])c1ccc(NC2CCN(Cc3ccccc3)CC2)c2ccncc12 | inactive | 23.9 | 21.7
11 | CC(C)(C)n1nnnc1C(CCc1ccccc1)N1CCC(n2c(=O)[nH]c3ccccc32)CC1 (centres undefined) | inactive | 18.3 | 24.7
12 | CN1CCN(CCNC(=O)c2ccc3nc(-c4ccc(F)cc4)c(-c4ccc(F)cc4)nc3c2)CC1 | 15.4 µM | 19.4 | 11.3
13 | CN(CCOc1ccc(Cl)cc1)C(=O)c1cc(-c2ccco2)nc2ccccc12 | 15.1 µM | 15.9 | 14.4
14 | CCc1nc(Nc2ccc(N3CCN(C(C)=O)CC3)cc2)c2oc3ccccc3c2n1 | inactive | 28.1 | 94.9
15 | CCCCC(=O)NC(c1ccccc1Cl)c1ccc2cccnc2c1O (centres undefined) | inactive | 2.98 | > 100
16 | CC1(C)CC(NC(=O)c2sc3cc(Cl)ccc3c2Cl)CC(C)(C)N1 | 18.1 µM | 20.7 | 15.6
17 | CC1=NN(c2cccc(C(=O)O)c2)C(=O)/C1=C\C=C/c1ccccc1 | 14.8 µM | 17.7 | 12

Row | Compound | IC50 (PEG-3 [1]) | IC50 (PEG-3 [2]; [3]) [µM] | IC50 (PEG-3 [2]; [4]) [µM]
18 | COc1ccc(NC(=O)N(C)[C@H]2C[C@H]3c4[nH]c5ccc(-c6cccc(C)c6)cc5c4CCN3C[C@H]2[C@H](C)O)cc1 | inactive | 23.6 | 22.7
19 | COc1ccccc1CN(C)C(=O)c1cc(-c2cccs2)nc2ccccc12 | 13.5 µM | 14.3 | 12.7
20 | COCc1ccc(CN2CCC(C(=O)Nc3cccc(-c4cccc(Cl)c4)c3)CC2)o1 | 13.3 µM | 16.8 | 9.78
21 | CCOC(=O)c1cccc(Nc2nc(-c3cccnc3)nc3ccccc23)c1 | 11.8 µM | 12.1 | 11.4
22 | CC(=O)c1cccc(-c2csc3ncnc(Sc4nnnn4C)c23)c1 | 15.7 µM | 16 | 15.3
23 | COc1ccccc1NC(=O)c1cc(-c2cc(OC)c(OC)c(OC)c2)nc2ccccc12 | 15.2 µM | 27.3 | 3.16
24 | CC1CCCCN1S(=O)(=O)c1ccc(C(=O)N(CCCN(C)C)c2nc3ccc(Br)cc3s2)cc1 (centres undefined) | 15 µM | 19.1 | 10.9
25 | COc1cc(N=Nc2c(O)c3ccccc3[nH]c2=O)c(OC)cc1N=Nc1ccccc1 | > 100 µM (inactive) | > 100 | > 100
26 | Cc1ccc(S(=O)(=O)N(C)C)cc1NC(=O)c1cncc(Br)c1 | inactive | 47.7 | 8.59
27 | Oc1cccc(C(Nc2nccs2)c2ccc3cccnc3c2O)c1 (centres undefined) | inactive | > 100 | 31.1
28 | COc1ccc(C(=O)Nc2cccc(C(=O)N/N=C/c3ccc(OC)cc3OC)c2)cc1 | inactive | 28.1 | 38
29 | CCC(=C(c1ccc(OC)cc1)c1ccc(OC)cc1)c1cn(CC(O)CN2CCN(C)CC2)c2ccccc12 (centres undefined) | 15.7 µM | 18.9 | 12.5
30 | COc1ccc(CCNC(=O)C(=O)NCC2CCCN2S(=O)(=O)c2ccccc2)cc1OC (centres undefined) | inactive | 29.8 | 39.3
31 | CCCc1ccc(C(=O)O/N=C(\N)c2ccccn2)cc1 | inactive | 36.5 | 16.6
32 | COc1cccc(CN(C)C(=O)c2cc(-c3cccs3)nc3ccccc23)c1 | inactive | 24.7 | 30.8
33 | CCN(CC)CCN1CCN(c2cncc(-c3ccc4ccccc4c3)n2)CC1 | inactive | 34.4 | 11.9
